Data set [1] deals with Primary neuron. The experiment in a line: Protection against oxygen-glucose deprivation-induced cytotoxicity in Sprague-Dawley rat cerebral cortex primary neuronal cell cultures assessed as increase in cell viability at 1 uM added at onset of recovery period by MTT assay. Format: functional, tissue-based. (In general: Tetrazolium assays rely on reduction of a dye to a coloured formazan, in cell work by metabolically active cells.)

In data set [2] the test system is Primary neuron. The experiment in a line: Protection against oxygen-glucose deprivation-induced cytotoxicity in Sprague-Dawley rat cerebral cortex primary neuronal cell cultures assessed as increase in cell viability at 5 uM added at onset of recovery period by MTT assay. Format: functional, tissue-based.
Data set [3] has as its system Primary neuron. The experiment in a line: Protection against oxygen-glucose deprivation-induced cytotoxicity in Sprague-Dawley rat cerebral cortex primary neuronal cell cultures assessed as increase in cell viability at 1 and 5 uM added at onset of recovery period and measured during recovery for 5 days by MTT assay. The data set is classed as functional, tissue-based.

Data set [4] in a line: Protection against oxygen-glucose deprivation-induced cytotoxicity in Sprague-Dawley rat cerebral cortex primary neuronal cell cultures assessed as increase in cell viability at 1 uM added at onset of recovery period and measured during recovery for 5 days by MTT assay (reference value: 0.842 AU). The data set is classed as functional, Primary neuron.
A short description of data set [5]: Protection against oxygen-glucose deprivation-induced cytotoxicity in Sprague-Dawley rat cerebral cortex primary neuronal cell cultures assessed as increase in cell viability at 5 uM added at onset of recovery period and measured during recovery for 5 days by MTT assay (reference value: 0.842 AU). Format: functional, Primary neuron.
The test system of data set [6] is Primary neuron. Description: Protection against oxygen-glucose deprivation-induced cytotoxicity in Sprague-Dawley rat cerebral cortex primary neuronal cell cultures assessed as increase in cell viability at 1 and 5 uM added after 48 hrs post recovery period and measured during recovery for 5 days by MTT assay. Format: functional, tissue-based.
Data set [7] has as its system Primary neuron. Description: Protection against oxygen-glucose deprivation-induced cytotoxicity in Sprague-Dawley rat cerebral cortex primary neuronal cell cultures assessed as increase in cell viability at 250 uM added at onset of recovery period by MTT assay. The data set is classed as functional, tissue-based.
Data set [8] relates to Primary neuron. The experiment in a line: Protection against oxygen-glucose deprivation-induced cytotoxicity in Sprague-Dawley rat cerebral cortex primary neuronal cell cultures assessed as increase in cell viability at 250 uM added at onset of recovery period and measured during recovery for 5 days by MTT assay. Format: functional, tissue-based.
For data set [9], the system named is Primary neuron. The experiment in a line: Protection against oxygen-glucose deprivation-induced cytotoxicity in Sprague-Dawley rat cerebral cortex primary neuronal cell cultures assessed as increase in cell viability at 250 uM added after 48 hrs post recovery period and measured during recovery for 5 days by MTT assay. Format: functional, tissue-based.
Data set [10] deals with Rattus norvegicus. Description: Neuroprotection in Wistar rat model of ischemia assessed as reduction in neurological deficit score at 40 mg/kg measured after 5 days of reperfusion. Format: functional, organism-based.
Data set [11] relates to Rattus norvegicus. Description: Neuroprotection in Wistar rat model of ischemia assessed as reduction ischemia-induced neuronal death in hippocampal CA1 regions at 40 mg/kg, ip dosed at onset of reperfusion period and measured on 5 days of reperfusion by fluoro jade B staining based fluorescence microscopy. The data set is classed as functional. Also on record: scale not given: the % may be the effect or the level left.

The test system of data set [12] is Rattus norvegicus. Description: Neuroprotection in Wistar rat model of ischemia assessed as reduction ischemia-induced neuronal death in cortical regions at 40 mg/kg, ip dosed at onset of reperfusion period and measured on 5 days of reperfusion by fluoro jade B staining based fluorescence microscopy. The data set is classed as functional. Also on record: scale not given: the % may be the effect or the level left.

In data set [13] the test system is Rattus norvegicus. The experiment in a line: Neuroprotection in Wistar rat model of ischemia assessed as reduction ischemia-induced neuronal apoptosis in hippocampal CA1 regions at 40 mg/kg, ip dosed at onset of reperfusion period and measured on 5 days of reperfusion by TUNEL assay. The arrangement: scale not given: the % may be the effect or the level left. Format: functional.

Data set [14] relates to Rattus norvegicus. The experiment in a line: Neuroprotection in Wistar rat model of ischemia assessed as reduction ischemia-induced neuronal apoptosis in cortical regions at 40 mg/kg, ip dosed at onset of reperfusion period and measured on 5 days of reperfusion by TUNEL assay. Format: functional. Also on record: scale not given: the % may be the effect or the level left.

Data set [15] has as its system Primary neuron. The experiment in a line: Protection against oxygen-glucose deprivation-induced cytotoxicity in Sprague-Dawley rat cerebral cortex primary neuronal cell cultures assessed as increase in cell viability at 0.1 to 250 uM added at onset of recovery period by MTT assay. Format: functional, tissue-based.
Data set [16] is described as follows: Toxicity in Sprague-Dawley rat cerebral cortex primary neuronal cell cultures under oxygen-glucose deprivation conditions assessed as […] in cell viability at >10 uM added at onset of recovery period by MTT assay. The data set is classed as tissue-based. As to conditions: primary neuron.
For data set [17], the system named is Primary neuron. The experiment in a line: Reduction of oxygen-glucose deprivation-induced ROS generation in Sprague-Dawley rat cerebral cortex primary neuronal cell cultures at 1 to 10 uM measured at 2 hrs of recovery after oxygen-glucose deprivation by fluorescence assay. The data set is classed as functional, tissue-based.
Data set [18] concerns Primary neuron. The experiment in a line: Reduction of oxygen-glucose deprivation-induced lipid peroxidation in Sprague-Dawley rat cerebral cortex primary neuronal cell cultures assessed as reduction in MDA level at 5 uM measured at 4 hrs of recovery after oxygen-glucose deprivation by TBARS based colorimetric and fluorometric assay. The data set is classed as functional, tissue-based.

The test system of data set [19] is Rattus norvegicus. Description: Neuroprotection in Wistar rat model of ischemia assessed as reduction in neurological deficit score at 0.005 mg/kg measured after 5 days of reperfusion (reference value: 2.5 +/- 0.34 No unit). The data set is classed as functional.
The subject of data set [20] is Rattus norvegicus. The experiment in a line: Neuroprotection in Wistar rat model of ischemia assessed as reduction in neurological deficit score at 0.1 mg/kg measured after 5 days of reperfusion (reference value: 2.5 +/- 0.34 No unit). The data set is classed as functional.
The subject of data set [21] is Rattus norvegicus. The experiment in a line: Neuroprotection in Wistar rat model of ischemia assessed as reduction ischemia-induced neuronal death in hippocampal CA1 regions at 0.05 mg/kg, ip dosed at onset of reperfusion period and measured on 5 days of reperfusion by fluoro jade B staining based fluorescence microscopy. The arrangement: scale not given: the % may be the effect or the level left. Format: functional.

Data set [22] relates to Rattus norvegicus. Description: Neuroprotection in Wistar rat model of ischemia assessed as reduction ischemia-induced neuronal death in cortical regions at 0.05 mg/kg, ip dosed at onset of reperfusion period and measured on 5 days of reperfusion by fluoro jade B staining based fluorescence microscopy. The data set is classed as functional. Also on record: scale not given: the % may be the effect or the level left.

Data set [23] relates to Rattus norvegicus. The experiment in a line: Neuroprotection in Wistar rat model of ischemia assessed as reduction ischemia-induced neuronal death in hippocampal CA1 regions at 0.1 mg/kg, ip dosed at onset of reperfusion period and measured on 5 days of reperfusion by fluoro jade B staining based fluorescence microscopy. The data set is classed as functional. Also on record: scale not given: the % may be the effect or the level left.

Data set [24] deals with Rattus norvegicus. Description: Neuroprotection in Wistar rat model of ischemia assessed as reduction ischemia-induced neuronal death in cortical regions at 0.1 mg/kg, ip dosed at onset of reperfusion period and measured on 5 days of reperfusion by fluoro jade B staining based fluorescence microscopy. The arrangement: scale not given: the % may be the effect or the level left. Format: functional.

Data set [25] relates to Rattus norvegicus. Description: Neuroprotection in Wistar rat model of ischemia assessed as reduction ischemia-induced neuronal apoptosis in hippocampal CA1 regions at 0.05 and 0.1 mg/kg, ip dosed at onset of reperfusion period and measured on 5 days of reperfusion by TUNEL assay. The arrangement: scale not given: the % may be the effect or the level left. The data set is classed as functional.

Data set [26] has as its system Rattus norvegicus. Description: Neuroprotection in Wistar rat model of ischemia assessed as reduction ischemia-induced neuronal apoptosis in cortical regions at 0.05 and 0.1 mg/kg, ip dosed at onset of reperfusion period and measured on 5 days of reperfusion by TUNEL assay. The data set is classed as functional. The arrangement: scale not given: the % may be the effect or the level left.

Data set [27] in a line: Toxicity in Sprague-Dawley rat cerebral cortex primary neuronal cell cultures under oxygen-glucose deprivation conditions assessed as […] in cell viability at >50 uM added at onset of recovery period by MTT assay. Format: tissue-based. The following applies: primary neuron.

This is an account of results in ChEMBL document CHEMBL3600301, “CholesteroNitrones for Stroke” (J Med Chem, 2015).

The source made the active and inactive calls. No cut-off for these calls is given here.

`CC(C)CCC[C@@H](C)[C@H]1CC[C@H]2[C@@H]3CCC4=C/C(=[N+](/C)[O-])CC[C@]4(C)[C@H]3CC[C@]12C`: the result in the data set with Primary neuron [1] and in the data set on Primary neuron [2] was inactive. The outcome in the data set on Primary neuron [3] and in the data set with Primary neuron [6] was Active. Moreover, the results for the Activity in [4] and in data set [5] were 0.888 a.u and 0.998 a.u, respectively.

Take `CC(C)(C)/[N+]([O-])=C/c1ccc(S(=O)(=O)[O-])cc1S(=O)(=O)[O-].[Na+].[Na+]`: the result in the data set with Primary neuron [7] was Active. The result in the data set on Primary neuron [8], in the data set with Primary neuron [9] and in the data set on Rattus norvegicus [10] was inactive. Further, the Activity is 17% with Rattus norvegicus [11], 66% with Rattus norvegicus [12], 21% with Rattus norvegicus [13] and 55% with Rattus norvegicus [14].

With `CC(C)CCC[C@@H](C)[C@H]1CC[C@H]2[C@@H]3CC=C4CC(=O)CC[C@]4(C)[C@H]3CC[C@]12C`, the result in the data set on Primary neuron [15] was inactive.

Turning to `CC(C)CCC[C@@H](C)[C@H]1CC[C@H]2[C@@H]3CCC4=C/C(=[N+](\C)[O-])CC[C@]4(C)[C@H]3CC[C@]12C`, the outcome in the data set with Primary neuron [1], with Primary neuron [2], with Primary neuron [7], in the data set with Primary neuron [3], with Primary neuron [6] and in the data set on Primary neuron [17] was Active. Further, the result in the data set on Primary neuron [18] was Active. The Activity result in data set [16] was “Toxic”; in data set [4] it was 0.931 a.u; in data set [5], 0.995 a.u; in the data set on Rattus norvegicus [19], 0.5; in the data set on Rattus norvegicus [20] it was 1.25; in the data set on Rattus norvegicus [21], 17%. Further, the Activity with Rattus norvegicus [22] stood at 66%; with Rattus norvegicus [23], 27%; in the data set on Rattus norvegicus [24], 83%; in the data set on Rattus norvegicus [25] it was 30%; in the data set with Rattus norvegicus [26], 89%.

For `CC(C)CCC[C@@H](C)[C@H]1CC[C@H]2[C@@H]3CCC4=CC(=O)CC[C@]4(C)[C@H]3CC[C@]12C` [4-CHOLESTEN 3-ONE], the outcome in the data set with Primary neuron [15] was inactive. The Activity entry in data set [27] is listed as “Toxic”.
